The subject of data set [1] is humanized pancreatic cancer tissue. The experiment in a line: In vivo anti-tumor effect, mouse subcutaneous tumor model of humanized pancreatic cancer tissue. Here is the method:
Experimental material: humanized pancreatic cancer tissue
Experimental method: establishing a mouse subcutaneous tumor model based on humanized pancreatic cancer tissue
Experimental process: a mouse subcutaneous tumor model of humanized pancreatic cancer tissue was established, TP (0.3 mg/kg) and Callide^NP (0.3 mg/kg, administration dosage after it was theoretically completely degraded to TP) were administrated via tail vein injection, once a day. One week later, the dosage of Callide^NP was increased to 0.6 mg/kg.

A short description of data set [2]: Rat PK experiment of Callide^NP (chromatography-mass spectrometry). It counts as in vivo. Particulars: SD rats, Callide^NP 0.3 and 0.6 mg/kg; for concentration of free TP in plasma / plasma half-life: TP 0.3 mg/kg. Here is the method: Experimental materials: rats, strain SD, 6-9 weeks old. Analytical instruments: Agilent 1290/6460 triple quadrupole mass spectrometer, made in the United States.
Experimental Method: Chromatography-Mass Spectrometry
Experimental process: 12 SD rats were randomly divided into 4 groups, with 3 rats in each group. TP (0.3 mg/kg), TP/Cal (0.3/0.35 mg/kg), Callide^NP (0.3 mg/kg), Callide^NP (0.6 mg/kg) were administered respectively. 300 μl of blood of each rat was collected through the orbit at 5 min, 15 min, 30 min, 1 h, 2 h, 4 h, and 8 h, respectively, centrifuged at 10000 rpm at 4° C., and the supernatant plasma was collected. The plasma was extracted with ethyl acetate/water, vortexed, sonicated, centrifuged at 4° C., the supernatant was evaporated to dryness under the protection of nitrogen, and then dissolved in mobile phase acetonitrile/water. After centrifugation, the supernatant was taken and injected.

The subject of another data set is porcine liver esterase. The experiment in a line: In vitro degradation experiment of Callide (HPLC). It counts as in vitro ADME. The note with it: absence of porcine liver esterase. As to the method: Experimental materials: phosphate buffer (PBS, Ph=7.2 to 7.4), porcine liver esterase, high performance liquid chromatography (HPLC)
Experimental Method: HPLC Method
Experimental process: 5 microliters of 1 mg/ml Callide (ethanol solution for solubilizing) in 5 ml of PBS buffer with or without porcine liver esterase, and stirred at 37 degrees Celsius for 1 min, 5 min, 10 min, 30 min, 1 h, 2 h, 4 h, 8 h, 12 h, 24 h, 48 h, respectively, 200 microliters of the solution were taken, filtered, and a concentration of Callide or calcipotriol in the solution was determined by HPLC.

Data set [3] relates to pancreatic cancer cell lines MIA PaCa-2, PANC-1, SW1990, and SW1990-GEM. The experiment in a line: Cytotoxicity experiment of Callide (DNA assay method). It counts as cell-based. The note with it: 24 h. As to the method:
Experimental materials: four pancreatic cancer cell lines, i.e., MIA PaCa-2, PANC-1, SW1990, and SW1990-GEM. Whole cell culture medium, microplate reader
Experimental Method: DNA Assay Method
Experimental process: pancreatic cancer cells were cultured, digested, resuspended into a cell suspension with medium, and seeded into 96-well plates, with 4000 cells per well. The experimental components are […], i.e., TP group, Cal group, TP and Cal physical mixed group (TP/Cal), Callide-DMSO without esterase group (Callide without PLE), Callide-DMSO with 10 U esterase group (Callide with 10 U PLE), Callide^NP without esterase group (Callide^NP without PLE), and Callide^NP with 10 U esterase group (Callide^NP with 10 U PLE). For each group, 8 concentrations of 5 nM, 10 nM, 20 nM, 40 nM, 80 nM, 100 nM, 200 nM, and 400 nM were prepared, and each concentration was repeated in six wells. After 24 h of administration, the drug solution was removed by suction, washed with PBS twice, added […], analyzed by a microplate reader, and plotted a relative survival rate curve of cells to calculate an IC50 of each compound.

Data set [4] is described as follows: Toxicity experiment on mice in short- and long-term administration. Particulars: mouse, in vivo.
Description: Experimental Material: BALB/C Mice
Experimental method: BALB/C mice were divided into 5 groups, including a saline control group and four drug administration groups of TP, Cal, TP/Cal, and Callide^NP groups. 5 mice in the control group, and 5 mice for each of 3 dosages, i.e., high, medium and low dosages in each experimental group, for a total of 65 mice. Dosages of administration: TP (0.3 mg/kg, 0.6 mg/kg, 1.2 mg/kg); Cal (0.6 mg/kg, 1.2 mg/kg, 1.8 mg/kg); TP/Cal (0.6 mg/kg, 1.2 mg/kg, 1.8 mg/kg); and Callide^NP (0.6 mg/kg, 1.2 mg/kg, 1.8 mg/kg), were administered once a week via tail vein injection.
For data set [5], the system named is pancreatic stellate cells and pancreatic cancer cells co-implanted orthotopic model. In kind it is in vivo. Particulars: for tumor suppression effect: TP 0.3, Cal 0.35, TP/Cal 0.3/0.35, Callide^NP 0.6 mg/kg, once every two days, 7 times. Here is the method: Experimental materials: pancreatic stellate cells, pancreatic cancer cells transfected with luciferase; nude mice: strain Blab/C nude, 6-8 weeks old.
Experimental method: suspensions of pancreatic stellate cells and luciferase-transfected pancreatic cancer cells were mixed uniformly at a ratio of 1:1, and inoculated into the pancreas at a density of 10,000 cells/40 μL with an inoculation volume of 40 μL.
Experimental process: the two kinds of cells were digested and centrifuged, resuspended with PBS and mixed at a ratio of 1:1, and then the cell mixture was mixed with Matrigel at a ratio of 1:1 and pipetted uniformly. Nude mice underwent relevant operations under the premise of review by the Ethics Committee of Tsinghua University. […], of the uniformly pipetted cell suspension was injected into the pancreas with an insulin needle, the wound was sutured, and a sedative was injected subcutaneously. About one week after the cell injection, each mouse was intraperitoneally injected with 0.1 ml of […] solution. After 10 min, the mice were anesthetized with isoflurane, and an intensity of the fluorescent signal in the pancreas of the mice was detected with a live imaging system for small animal. Subsequently, the mice were randomly divided into groups, 7 mice in each group, and TP (0.3 mg/kg), Cal (0.35 mg/kg), TP/Cal (0.3/0.35 mg/kg), and Callide^NP (0.6 mg/kg) were administrated, respectively, once every two days for a total of 7 times. After each administration, the mice were weighed. After 4 times of administration, the intensity of the fluorescent signal in the pancreas of mice was detected with the live imaging system for small animal. After the administrations were all finished, the intensity of the fluorescent signal in the pancreas of the mice was detected again with the live imaging system for small animal, while recording a survival rate of mice. After the experiment, the tumor tissues of the mice were taken, and an expression of smooth actin and collagen in the tumor tissues was detected by tissue immunofluorescence staining (the experiment results are shown in FIG. 6).

For a further data set, the system named is MIA PaCa-2 cell line. The experiment in a line: In vivo anti-tumor effect, mouse subcutaneous tumor model based on MIA PaCa-2. The note with it: for anti-tumor effect (tumor growth): compared with saline, TP 0.3, Cal 0.3, TP/Cal 0.3/0.35, Callide^NP 0.3 mg/kg (as TP), tail vein once a week. Here is the method: Experimental Material: MIA PaCa-2 Cell Line
Experimental method: establishing a mouse subcutaneous tumor model based on the MIA PaCa-2 cell line, and evaluating an inhibitory effect on tumor as well as toxic and side effect of each compound of the experimental group after administration.
Experimental process: 0.1 ml of MIA PaCa-2 cell suspension was injected into axilla of the mice, and the growth of tumor was monitored. […] Dosages of administration: TP (0.3 mg/kg), Cal (0.3 mg/kg), TP/Cal (0.3/0.35 mg/kg), Callide^NP (0.3 mg/kg, administration dosage after it was theoretically completely degraded to TP), administered via tail vein injection once a week. The tumor size was measured every two days.

Data set [6] has as its system pancreatic stellate cells. Put plainly: Smooth actin and collagen in pancreatic stellate cells alone (immunofluorescence). In kind it is cell-based, KPC mice. The note with it: 24 hours, TP 10 nM, Cal 100 nM, TP/Cal 10/100 nM, Callide^NP 100 nM. The text has this:
(§1) Experimental materials: pancreatic stellate cells and pancreatic cancer cells cultured in transgenic mice. Among them, pancreatic cancer cells were transfected with luciferase gene by lentivirus transfection method.
(§2) Experimental method: in vitro co-culture, immunofluorescence histochemical analysis
(§3) Experimental process: the tumor tissues were taken from KPC mice that spontaneously developed with tumors, and the tumor tissues were dissected, and primary pancreatic stellate cells and pancreatic cancer cells were isolated by physical in vitro disruption and enzymatic hydrolysis, and cultured.
Pancreatic stellate cells alone were cultured in a 12-well plate, 100,000 cells per well, treated with TP (10 nM), Cal (100 nM), TP/Cal (10/100 nM), Callide^NP (100 nM) for 24 hours, and then contents of smooth actin and collagen of the cells in each well were analyzed with immunofluorescence staining.

Data set [7] relates to pancreatic stellate cells and pancreatic cancer cells. The experiment in a line: Smooth actin and collagen in co-cultured pancreatic stellate cells and pancreatic cancer cells (immunofluorescence). It counts as cell-based, KPC mice. The note with it: co-culture 1:1, 24 hours; TP 10 nM, Cal 100 nM, TP/Cal 10/100 nM, Callide^NP 100 nM.
Excerpt: as §1, §2, §3
Pancreatic stellate cells and pancreatic cancer cells were cultured in a 12-well plate at a ratio of 1:1, with a total of 100,000 cells per well, using TP (10 nM), Cal (100 nM), treated with TP/Cal (10/100 nM), and Callide^NP (100 nM), and incubated for 24 hours, and then the contents of smooth actin and collagen of the cells in each well were analyzed with immunofluorescence staining.

Read-outs that look alike come from different tables or passages of the source.

On to `C=C1/C(=C\C=C2/CCC[C@@]3(C)C2CCC3[C@@H](C)/C=C/C(OC(=O)CCC(=O)O[C@@H]2[C@@]3(C(C)C)O[C@H]3[C@@H]3O[C@]34[C@]23O[C@H]3C[C@H]2C3=C(CC[C@@]24C)C(=O)OC3)C2CC2)C[C@@H](O)C[C@@H]1O` (some centres unmarked) [Callide], for which, in data set [1] (immunohistochemical staining), the “apoptosis of tumor cells” value is listed as “accompanied by apoptosis of tumor cells” and the “fibrin content of the tumor tissue” value was “significantly reduced”. In addition, in data set [2], the “average plasma residence time” value is recorded as “prolonged”, the “concentration of free TP in plasma” value was “significantly reduced” and the plasma half-life entry is “prolonged”. Also, the “degradation of Callide” value in the data set with porcine liver esterase (PBS, 37 degrees Celsius) is recorded as “could not be degraded”. For the same molecule, the “concentration of Callide in the solution” value in the data set on porcine liver esterase (time extended to 48 h) was “remained unchanged”. For the same molecule, the cell killing effect entry in data set [3] (with 10 U porcine liver esterase) is on record as “produce cell killing effect”. In data set [3] (without the addition of esterase), the “toxic and side effects on cells” value was “no toxic and side effects on cells”. Also, in [4], the “long-term toxicity compared with TP” value is recorded as “significantly reduced”.
The term IC50 denotes the concentration that inhibits the measured activity by half. A high value points to weaker potency in that assay. With `CC(C)[C@]12O[C@H]1[C@@H]1O[C@]13[C@]1(O[C@H]1C[C@H]1C4=C(CC[C@@]13C)C(=O)OC4)[C@@H]2O` [TP, triptolide], in [1] (first week, 0.3 mg/kg once a day via tail vein), the “inhibitory effect on tumor growth” value was “significant inhibitory effect on tumor growth”. In addition, the toxicity result in data set [5] (TP 0.3 mg/kg) is given as “obvious toxicity”. In addition, in data set [5], the tumor suppression effect entry is “insignificant tumor suppression effect”. The deaths entry in data set [5] (after seven administrations, TP 0.3 mg/kg) is “one mouse died”. The “body weight of the mice” value in data set [5] (mouse, in vivo) is “significantly reduced”. Further, the mortality result (1.8 mg/kg, single administration) is given as “all mice died after a single administration”. Further, under “TP group”, the “morphology of spermatogonia and spermatocytes” value is listed as “severely damaged”; the “organs (anatomical results)” value is “different degrees of necrosis”; the “relative weight of the testis” value is “significantly reduced”. Further, for the setting “especially 1.2 mg/kg of TP”, the body weight entry is listed as “lost their weight significantly” and the “skin at the injection site on the tail” value was “severe skin ulceration”. For the same molecule, under “high, medium and low dosages, once a week via tail vein injection”, the “toxic reactions / adverse states after administration” value is “obvious toxic reactions”. Also, in data set [2], the “concentration of free TP in plasma” value is “high” and the plasma half-life entry is reported as “short”. The “anti-tumor effect (tumor growth)” value in the data set on MIA PaCa-2 cell line is recorded as “inhibits tumor growth more effectively than Callide^NP”. Further, in the data set on MIA PaCa-2 cell line (mouse, in vivo), the “tumor size relative to other groups” value was “smaller than that of the TP/Cal and Callide^NP groups”. Moreover, the tumor weight entry in the data set on MIA PaCa-2 cell line (tumors isolated and weighed after dissection) is recorded as “significantly less weight than the control group”. Also, the “contents of smooth actin and collagen” value in data set [6] is “not significantly different”. In [3] (Pancreatic cancer cell, all four types of pancreatic cancer cells), the IC50 is 20 nM. In data set [7], the “expression levels of related proteins (smooth actin and collagen)” value is “did not change significantly”.
Take `C=C1/C(=C\C=C2/CCC[C@@]3(C)C2CCC3[C@@H](C)/C=C/[C@@H](O)C2CC2)C[C@@H](O)C[C@@H]1O` (some centres unmarked) [Cal, calcipotriol]: the tumor suppression effect result in data set [5] is “no tumor suppression effect”. In addition, in data set [5] (compared with the control group), the “survival rate of mice” value is on record as “no significant difference”. For the same molecule, in data set [5] (live imaging, compared with the control group), the “fluorescent signal of pancreatic cancer cells” value is listed as “no significant difference”. The “toxic reactions / adverse states after administration” value (mouse, in vivo) is given as “none of the mice in the Cal group showed the above-mentioned adverse symptoms”. In addition, the “anti-tumor effect (tumor growth)” value in the data set on MIA PaCa-2 cell line is recorded as “no anti-tumor effect”. In addition, the “contents of smooth actin and collagen” value in data set [6] is on record as “decreased”. Further, the “killing effect on cancer cells” value in data set [3] (within the dosage range studied (5 nM to 400 nM)) is reported as “no killing effect on cancer cells”. In addition, the “expression levels of related proteins (smooth actin and collagen)” value in data set [7] is “significantly reduced”.

For the origin of these results see US20210196730A1, “COMPOUND AND USE THEREOF” (priority 2018, published 2021).
